Here are results for two compounds from paper PMC4769088, “Antifungal Activity and Action Mechanism of Histatin 5-Halocidin Hybrid Peptides against Candida ssp” (PLoS ONE, 2016).

The experiment concerns pustulan (β-1,6-glucan polymer), C. albicans cell wall component. Nature of the experiment: Binding/radial diffusion assay with pustulan. Type of experiment: cell-based. Conditions: peptide final 180 μg/ml, pre-incubated 2 h at 37°C, radial diffusion assay. How it is done:
The candidacidal activities of the peptides were tested by using standard microdilution plate assays, radial diffusion assays and broth dilution assay slightly modified from the procedure recommended by the National Committee for Clinical Laboratory Standards. For the candidacidal assays, C. albicans cells were grown in YPD medium and washed twice with 10 mM sodium phosphate buffer (NaPB; Na2HPO4, NaH2PO4, pH 7.4). The cells (1 x 10^6) were then mixed with different concentrations of peptides and incubated at 30°C with constant shaking for 60 min. For energy depletion experiments, cells were pre-incubated with 10 mM NaPB containing 5 mM NaN3 at 30°C for 60 min before the addition of peptides. The cell suspensions were diluted in 10 mM NaPB and aliquots of 500 cells were spread onto YPD agar plates then incubated for 24 h at 30°C to visualize the surviving colonies. Cell survival was expressed as a percentage of that for the control, and the loss of viability was calculated as [1 x (number of colonies from peptide-treated cells/number of colonies from control cells)] x 100. […] The clear-zone diameters were measured to the nearest 0.1 mm and graphed against the peptide concentration. […] The numbers of yeasts were counted using a hemocytometer. […] The antifungal activities were evaluated after 24 h of incubation at 30°C by the observation of visible turbidity the wells. […]

The structures appear in SMILES notation. Where a SMILES comes first, the peptide text is derived from it. Bridges are numbered along the chain shown (N, C = ends). Roman numbers before positions name the chains, in order.

On to `CC(C)C[C@H](NC(=O)CNC(=O)[C@H](Cc1c[nH]cn1)NC(=O)[C@H](Cc1c[nH]cn1)NC(=O)[C@H](CC(C)C)NC(=O)[C@H](CC(C)C)NC(=O)[C@H](C)NC(=O)[C@H](CC(N)=O)NC(=O)[C@H](CC(C)C)NC(=O)[C@@H](N)Cc1c[nH]c2ccccc12)C(=O)N[C@@H](CC(N)=O)C(=O)N[C@@H](CSSC[C@H](NC(=O)[C@H](CC(N)=O)NC(=O)[C@H](CC(C)C)NC(=O)CNC(=O)[C@H](Cc1c[nH]cn1)NC(=O)[C@H](Cc1c[nH]cn1)NC(=O)[C@H](CC(C)C)NC(=O)[C@H](CC(C)C)NC(=O)[C@H](C)NC(=O)[C@H](CC(N)=O)NC(=O)[C@H](CC(C)C)NC(=O)[C@@H](N)Cc1c[nH]c2ccccc12)C(=O)N[C@@H](C)C(=O)N[C@@H](CCCCN)C(=O)NCC(=O)N[C@H](C(=O)N[C@@H](CC(C)C)C(=O)N[C@@H](C)C(N)=O)C(C)C)C(=O)N[C@@H](C)C(=O)N[C@@H](CCCCN)C(=O)NCC(=O)N[C@H](C(=O)N[C@@H](CC(C)C)C(=O)N[C@@H](C)C(N)=O)C(C)C` [di-18Hc, reference compound] (I: H-WLNALLHHGLNCAKGVLA-NH2 / II: H-WLNALLHHGLNCAKGVLA-NH2; disulfide I:12-II:12 (inferred); N-terminus assumed), for which the “pustulan concentration at which activity began to decrease” value worked out at 20 mg/mL.

`CC(C)C[C@H](NC(=O)[C@@H](N)Cc1c[nH]c2ccccc12)C(=O)N[C@@H](CC(N)=O)C(=O)N[C@@H](C)C(=O)N[C@@H](CCCCN)C(=O)N[C@@H](CCCNC(=N)N)C(=O)N[C@@H](Cc1c[nH]cn1)C(=O)N[C@@H](Cc1c[nH]cn1)C(=O)NCC(=O)N[C@@H](Cc1ccc(O)cc1)C(=O)N[C@@H](CCCCN)C(=O)N[C@@H](CSSC[C@H](NC(=O)[C@H](CCCCN)NC(=O)[C@H](Cc1ccc(O)cc1)NC(=O)CNC(=O)[C@H](Cc1c[nH]cn1)NC(=O)[C@H](Cc1c[nH]cn1)NC(=O)[C@H](CCCNC(=N)N)NC(=O)[C@H](CCCCN)NC(=O)[C@H](C)NC(=O)[C@H](CC(N)=O)NC(=O)[C@H](CC(C)C)NC(=O)[C@@H](N)Cc1c[nH]c2ccccc12)C(=O)N[C@@H](CCCCN)C(=O)N[C@@H](Cc1ccccc1)C(=O)N[C@@H](Cc1c[nH]cn1)C(N)=O)C(=O)N[C@@H](CCCCN)C(=O)N[C@@H](Cc1ccccc1)C(=O)N[C@@H](Cc1c[nH]cn1)C(N)=O` [di-WP2] (I: H-WLNAKRHHGYKCKFH-NH2 / II: H-WLNAKRHHGYKCKFH-NH2; disulfide I:12-II:12 (inferred); N-terminus assumed): the “pustulan concentration at which activity began to decrease” value came to 20 mg/mL.
